In PubChem BioAssay AID330 (DTP/NCI, 2004) one finds T/C data, which are given here for 26 compounds.

The test deals with P388 leukemia ip, CD2F1 mice, survival T/C. The test can be described thus: NCI In Vivo Anticancer Drug Screen. Data for tumor model P388 Leukemia (intraperitoneal) in CD2F1 (CDF1) mice. Conditions: endpoint: median survival time, higher = longer survival. An outline of the steps:
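Mice carrying the transplanted tumor received test compound or vehicle. Survival was recorded in each group, and the value is the treated-group measurement divided by that of the vehicle-treated control group.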

[1] abbreviates: dose: 100.0 mg/kg/injection, schedule: Q04DX003 (ip), vehicle: saline with Tween-80.
Setting [2] is: dose: 200.0 mg/kg/injection, schedule: Q04DX003 (ip), vehicle: saline with Tween-80.
The mark [3] stands for this setting: dose: 100.0 mg/kg/injection, schedule: Q01DX009 (ip), vehicle: saline.
Where [4] appears, read: dose: 200.0 mg/kg/injection, schedule: Q01DX009 (ip), vehicle: saline.
Where [5] appears, read: dose: 50.0 mg/kg/injection, schedule: Q01DX005 (ip), vehicle: saline with Tween-80.
[6] abbreviates: dose: 60.0 mg/kg/injection, schedule: Q01DX005 (ip), vehicle: saline.
Where [7] appears, read: dose: 120.0 mg/kg/injection, schedule: Q01DX005 (ip), vehicle: saline.
The mark [8] stands for this setting: dose: 50.0 mg/kg/injection, schedule: Q01DX005 (ip), vehicle: saline.
Setting [9] is: dose: 100.0 mg/kg/injection, schedule: Q01DX005 (ip), vehicle: saline.
Where [10] appears, read: dose: 50.0 mg/kg/injection, schedule: Q01DX009 (ip), vehicle: saline.
[11] abbreviates: dose: 60.0 mg/kg/injection, schedule: Q01DX005 (ip), vehicle: saline with Tween-80.
Setting [12] is: dose: 120.0 mg/kg/injection, schedule: Q01DX005 (ip), vehicle: saline with Tween-80.

“And” between values parts separate entries of the source, which are not always exact repeats. Equal values may be shown once. Inconclusive results and toxic doses are left out.

Turning to `O=[N+]([O-])c1ccc(N/N=C(\CO)c2ccccc2)c([N+](=O)[O-])c1`, the T/C (dose: 50.0 mg/kg/injection, schedule: Q04DX003 (ip), vehicle: saline with Tween-80) was 100 % of control; the T/C under setting [1] was 104 % of control; the T/C under setting [2] was 100 % of control.

For `CCCCCCCCCCCCCCCC[N+]1(CC)CCCCC1`, the T/C was 121 % of control (dose: 0.59 mg/kg/injection, schedule: Q01DX009 (ip), vehicle: saline) and 89 % of control (dose: 0.78 mg/kg/injection, schedule: Q01DX009 (ip), vehicle: saline).

Consider `Oc1c(O)c(Br)c(Br)c(Br)c1Br`, for which the T/C was 107 % of control and 95 % of control under setting [3]; 111 % of control under setting [4].

In the case of `C(=N\SC(c1ccccc1)(c1ccccc1)c1ccccc1)/c1ccccc1`, the T/C under setting [5] is 100 % of control and the T/C (dose: 100.0 mg/kg/injection, schedule: Q01DX005 (ip), vehicle: saline with Tween-80) was 103 % of control.

Regarding `O=C(O)C1CSC2(CCCCC2)N1` (centres undefined), the T/C is 104 % of control (dose: 50.0 mg/kg/injection, schedule: Q04DX003 (ip), vehicle: saline); 95 % of control (dose: 100.0 mg/kg/injection, schedule: Q04DX003 (ip), vehicle: saline); 99 % of control (dose: 200.0 mg/kg/injection, schedule: Q04DX003 (ip), vehicle: saline); 96 % of control (dose: 400.0 mg/kg/injection, schedule: Q04DX003 (ip), vehicle: saline).

With `CN(C)CC(C)(CN(C)C)C(=O)/C=C/c1ccc(Cl)c(Cl)c1`, the T/C is 118 % of control (dose: 1.88 mg/kg/injection, schedule: Q01DX005 (ip), vehicle: saline with Tween-80); 110 % of control (dose: 3.75 mg/kg/injection, schedule: Q01DX005 (ip), vehicle: saline with Tween-80); 102 % of control and 110 % of control (dose: 7.5 mg/kg/injection, schedule: Q01DX005 (ip), vehicle: saline with Tween-80).

In the case of `N#Cc1nc(CC(=O)c2ccc(Cl)cc2Cl)c(CC(=O)c2ccc(Cl)cc2Cl)nc1C#N`, the T/C was 112 % of control under setting [6] and 106 % of control under setting [7].

In the case of `N#CNC(=S)S`, the T/C is 105 % of control (dose: 100.0 mg/kg/injection, schedule: Q04DX002 (ip), vehicle: saline); 109 % of control (dose: 200.0 mg/kg/injection, schedule: Q04DX002 (ip), vehicle: saline); 105 % of control (dose: 400.0 mg/kg/injection, schedule: Q04DX002 (ip), vehicle: saline).

On to `CC(=O)OCC1OC(S[As](C)CCO)C(OC(C)=O)C(OC(C)=O)C1OC(C)=O` (centres undefined), for which the T/C reads like this: (dose: 12.5 mg/kg/injection, schedule: Q01DX009 (ip), vehicle: Klucel (hydroxypropylcellulose) (HPC)) 103 % of control and 109 % of control; (dose: 25.0 mg/kg/injection, schedule: Q01DX009 (ip), vehicle: Klucel (hydroxypropylcellulose) (HPC)) 102 % of control and 113 % of control; (dose: 50.0 mg/kg/injection, schedule: Q01DX009 (ip), vehicle: Klucel (hydroxypropylcellulose) (HPC)) 103 % of control and 117 % of control and 122 % of control; (dose: 100.0 mg/kg/injection, schedule: Q01DX009 (ip), vehicle: Klucel (hydroxypropylcellulose) (HPC)) 111 % of control and 116 % of control; (dose: 200.0 mg/kg/injection, schedule: Q01DX009 (ip), vehicle: Klucel (hydroxypropylcellulose) (HPC)) 108 % of control.

Regarding `COC(=O)CCC(=O)C(C#N)c1ccc(CC#N)cc1` (centres undefined), the T/C is, setting by setting: (dose: 12.5 mg/kg/injection, schedule: Q01DX005 (ip), vehicle: saline with Tween-80) 96 % of control; (dose: 25.0 mg/kg/injection, schedule: Q01DX005 (ip), vehicle: saline with Tween-80) 98 % of control; under setting [5], 102 % of control and 95 % of control.

Regarding `COc1cc(C=Nc2cc(Cl)cc(Cl)c2)ccc1N(CCCl)CCCl`, the T/C was 159 % of control and 172 % of control under setting [1]; 181 % of control and 222 % of control under setting [2]; 204 % of control (dose: 300.0 mg/kg/injection, schedule: Q04DX003 (ip), vehicle: saline with Tween-80).

In the case of `CC(C)C(=O)NCCCCCCN1CCCCC1`, the T/C is, setting by setting: under setting [8], 96 % of control; under setting [9], 100 % of control.

In the case of `O=C1NC(c2ccccc2)(c2ccccc2)C(=O)N1CN1CC=CCC1`, the T/C by setting is: (dose: 60.0 mg/kg/injection, schedule: Q01DX005 (ip), vehicle: Klucel (hydroxypropylcellulose) (HPC)) 103 % of control; (dose: 120.0 mg/kg/injection, schedule: Q01DX005 (ip), vehicle: Klucel (hydroxypropylcellulose) (HPC)) 108 % of control; (dose: 240.0 mg/kg/injection, schedule: Q01DX005 (ip), vehicle: Klucel (hydroxypropylcellulose) (HPC)) 97 % of control.

With `CCn1c(N)c(C(=S)NC)c(=O)n(CC)c1=O`, the T/C under setting [10] was 100 % of control and the T/C under setting [3] is 96 % of control.

In the case of `CC(=O)OC/C=C(C)/C=C/C=C(C)/C=C/C1=C(C)CCCC1(C)C`, the T/C reads like this: (dose: 200.0 mg/kg/injection, schedule: Q01DX005 (ip), vehicle: saline with Tween-80) 95 % of control; (dose: 400.0 mg/kg/injection, schedule: Q01DX005 (ip), vehicle: saline with Tween-80) 97 % of control; (dose: 800.0 mg/kg/injection, schedule: Q01DX005 (ip), vehicle: saline with Tween-80) 97 % of control; (dose: 1600.0 mg/kg/injection, schedule: Q01DX005 (ip), vehicle: saline with Tween-80) 101 % of control.

In the case of `NC(=S)N/N=C1/C(=O)N(c2ccc(S(N)(=O)=O)cc2)C(=O)C1C(=O)Nc1ccc(S(N)(=O)=O)cc1` (centres undefined), the T/C is, setting by setting: (dose: 25.0 mg/kg/injection, schedule: Q04DX002 (ip), vehicle: saline with Tween-80) 104 % of control; (dose: 50.0 mg/kg/injection, schedule: Q04DX002 (ip), vehicle: saline with Tween-80) 100 % of control; (dose: 100.0 mg/kg/injection, schedule: Q04DX002 (ip), vehicle: saline with Tween-80) 99 % of control and 100 % of control.

With `COC(OC)C(Sc1ccccc1-n1cccc1)c1ccccc1` (centres undefined), the T/C was 105 % of control under setting [6]; 103 % of control under setting [7]; 108 % of control (dose: 240.0 mg/kg/injection, schedule: Q01DX005 (ip), vehicle: saline).

`CC(/C=C/c1ccc2c(c1)OCO2)=N\NC(N)=S`: the T/C is, setting by setting: (dose: 3.13 mg/kg/injection, schedule: Q01DX005 (ip), vehicle: saline with Tween-80) 104 % of control; (dose: 6.25 mg/kg/injection, schedule: Q01DX005 (ip), vehicle: saline with Tween-80) 112 % of control.

Consider `CCC1=C(C)CC(CC(=O)OC)C1=O` (centres undefined), for which the T/C is, setting by setting: under setting [8], 95 % of control; under setting [9], 97 % of control; (dose: 200.0 mg/kg/injection, schedule: Q01DX005 (ip), vehicle: saline) 98 % of control.

With `CC1CC[P+](C)(c2ccccc2)c2ccccc21` (centres undefined), the T/C (dose: 6.25 mg/kg/injection, schedule: Q04DX002 (ip), vehicle: saline) is 100 % of control and the T/C (dose: 12.5 mg/kg/injection, schedule: Q04DX002 (ip), vehicle: saline) is 103 % of control.

`Cc1ccc(NC(=O)CNCC(C)C)cc1Cl`: the T/C (dose: 50.0 mg/kg/injection, schedule: Q01DX005 (ip), vehicle: Klucel (hydroxypropylcellulose) (HPC)) was 100 % of control; the T/C (dose: 100.0 mg/kg/injection, schedule: Q01DX005 (ip), vehicle: Klucel (hydroxypropylcellulose) (HPC)) is 109 % of control; the T/C (dose: 200.0 mg/kg/injection, schedule: Q01DX005 (ip), vehicle: Klucel (hydroxypropylcellulose) (HPC)) was 100 % of control.

Consider `OC(C/C=C/c1ccccc1)(c1ccccc1)c1ccccc1`, for which the T/C was 109 % of control under setting [10], 100 % of control under setting [3] and 91 % of control under setting [4].

For `O=C1C(Cl)=C(Nc2ccc(C(=O)Nc3ccc4cc(S(=O)(=O)O)cc(S(=O)(=O)O)c4c3)cc2)C(=O)C(Cl)=C1Nc1ccc(C(=O)Nc2ccc3cc(S(=O)(=O)O)cc(S(=O)(=O)O)c3c2)cc1`, the T/C under setting [10] is 110 % of control, the T/C under setting [3] was 89 % of control and the T/C under setting [4] was 103 % of control.

On to `CC1C(=O)N(C)C(=O)N(C2CCCCC2)C1=O` (centres undefined), for which the T/C was 104 % of control under setting [11]; 104 % of control under setting [12]; 101 % of control (dose: 240.0 mg/kg/injection, schedule: Q01DX005 (ip), vehicle: saline with Tween-80).

As for `C[Si](C)(C)CNCCNC[Si](C)(C)C`, the T/C was 105 % of control under setting [11] and 98 % of control under setting [12].

In the case of `CC1(C)CC2(CC3(C1)S(=O)(=O)CCS3(=O)=O)S(=O)(=O)CCS2(=O)=O`, the T/C reads like this: (dose: 6.25 mg/kg/injection, schedule: Q01DX009 (ip), vehicle: saline) 103 % of control; (dose: 12.5 mg/kg/injection, schedule: Q01DX009 (ip), vehicle: saline) 100 % of control; (dose: 25.0 mg/kg/injection, schedule: Q01DX009 (ip), vehicle: saline) 116 % of control; under setting [10], 100 % of control.
